Results published in US12054503B2, “Amphiphilic material and application thereof in preparation for liposome” (ZHEJIANG UNIVERSITY, priority 2021, dated 2024).

Key:
U251 glioma = experiment: In vivo antitumor activity in mice bearing U251 glioma subcutaneously
Method: In vivo antitumor activity of the liposomal nanometer particle was further tested in another low permeability tumor of U251 glioma. The mice were subcutaneously inoculated with 2×10^7 U251 cells on the right flank. Same as the experiment of pancreatic tumor treatment, mice were randomly grouped into five groups (n=5) on the 6th day after inoculation. SCGLN, SGLN, free GEM (all dose equivalent to GEM 20 mg/kg), SCLN and PBS were intravenous injected every two days for a total of five times, the tumor site was treated with ultrasound stimulation (intensity: 2 W/cm^2, 3 MHz, duty cycle: 50%, duration: 10 min, Mettler Sonicator-740) after injection, the first administration was on the 6th day. The width and length of the tumors and the bodyweight of mice were measured during the treatment. At the end of the experiment, the mice were euthanized, and tumors were dissected and weighed. The therapeutic efficacy of the treatments was evaluated by comparing the experimental group with the control group.

[1] = test system: orthotropic pancreatic tumor (BxPC3-Luci); experiment: In vivo antitumor activity in orthotropic BxPC3 tumor-bearing mice
Method: The orthotropic pancreatic tumor was established by using the bioluminescent BxPC3 cells (BxPC3-Luci). Bioluminescence intensities in mice were measured using the in vivo imaging system of Caliper IVIS Lumina II (PerkinElmer, USA) to evaluate tumour growth. After inoculation with bioluminescent BxPC3 cells for 8 days, the mice were selected and grouped into five groups (n=5). SCGLN, SGLN, free GEM (all dose equivalent to GEM 20 mg/kg), SCLN and PBS were intravenous injected every two days for a total of five times, the tumor site was treated with ultrasound stimulation (intensity: 2 W/cm^2, 3 MHz, duty cycle: 50%, duration: 10 min, Mettler Sonicator-740) after injection. On the first administration (8th day), 12th, 16th, and 20th day, tumor progress was assessed and semi-quantitatively analyzed via bioluminescence after injection of 10 mg/mL D-luciferin in PBS (200 μL) by using the in vivo imaging system. Mice were sacrificed on the 20th day, and tumors were dissected and weighed. The tumor inhibition rate=100%×(mean tumor weight of PBS group−mean tumor weight of experimental group)/mean tumor weight of PBS group. The tumors were fixed with 4% neutral buffered paraformaldehyde and embedded in paraffin. Tissue sections of 5-μm thick were mounted onto glass slides and stained with hematoxylin-eosin (H&E) and examined by light microscopy (OLYMPUS, BX51, Japan). […]

Weight of mice during the treatment (U251 glioma; mouse, in vivo): gradually decreased
SMILES: Nc1ccn([C@@H]2O[C@H](CO)[C@@H](O)C2(F)F)c(=O)n1 [GEM, gemcitabine]
Anti-tumor effect (tumor eradication ability) (U251 glioma; dose equivalent to GEM 20 mg/kg i.v. every two days, five times, ultrasound stimulation, end of the experiment): 68.8%
Mean tumor inhibition rate ([1]; dose equivalent to GEM 20 mg/kg i.v. every two days, five times, ultrasound stimulation, tumor weight on 20th day): 66.7%
Body weight decrease at the end of the experiment ([1]; end of the experiment): ~10 % of the initial weight
